Experimental data: patent publication US9980890B2, “Zinc amino acid halide mouthwashes” (Colgate-Palmolive Company, priority 2012, dated 2018)

Key:
[1] = Clarity of oral gel phase batches: absorbance at 610 nm (Lambda 25 UV/VIS), original and diluted; type: physicochemical; details: for Absorbance: 610 nm
Procedure: The clarity of samples with different actives is compared, and the precipitation characteristic of ZLC gel phase by dilution is evaluated. […] Zinc ion concentration in the following batches are all prepared at 0.5% (w/w) zinc level.
Lambda 25 UV/VIS Spectrometer (PerkinElmer) is used to obtain absorbance information for all samples in order to compare the clarity of gel phase between different actives. Absorbance is a logarithmic measure of the amount of light that is absorbed when passing through a substance. Since the particles in the gel absorb light, the more particles existing in solution, the more light absorbed by the gel. Thus, a small number of absorbance of a gel indicates a higher clarity. The absorbance is corrected by using deionized (DI) water as the blank solution under the light source wavelength of 610 nm.

[2] = pH of oral gel phase batches, original and diluted; type: physicochemical; details: original gel phase batch with the named active
[3] = Turbidity (percent transmission, TurbiScan) of mouthwash batches, original and diluted; type: physicochemical; details: zinc 1.01 wt %
Procedure: Four 500 g mouthwash batches which contain NaF, ZLC, ZnCl2 and ZnO as active ingredient are formulated with the ingredients shown in Table 1. The objective of this study is to compare the clarity of samples with different actives. Turbidity is evaluated by the percent transmission of light through the solution as measured by a TurbiScan® dispersion stability analyzer. The higher the percent transmission, the more transparent the composition. […] The concentration of zinc ions in ZLC solution is 25300 ppm obtained by ICP (Inductively Coupled Plasma) analysis, which corresponds to approximately 17% weight of ZLC actives in the solution. Zinc ion concentration in all batches is controlled to same level, i.e., 1.01 wt %. Among the four batches, the one that has ZnO as active appears milk white, with 0% transmission, while the other three samples are as clear as the deionized water (Table 2).
All original mouthwash batches are diluted into 2 fold, 4 fold, 8 fold, 16 fold and 32 fold. Turbidity measurements are performed after all solutions are prepared and well shaken. The turbidity data of the samples are shown in Table 3, 4, 5 and 6, for the dilutions of mouthwash containing NaF, ZLC, ZnCl2 and ZnO respectively.

[4] = Dilution experiment of ZLC neat solution: visible flocculation/precipitation at 37° C.; type: physicochemical
Procedure: Various dilutions of ZLC are prepared to evaluate its efficiency in producing visible precipitates and/or flocculation, which can be delivered in situ onto an oral surface or into a dental opening, such as open tubules.
(§1) A neat solution of ZLC is prepared by 1), reacting 0.5 mole of ZnO powder with 1 mole of lysine HCl in 1 liter of water at room temperature for about 2 hours, and 2) collecting the supernatant through centrifugation followed by filtration using a 0.45 micron membrane. The neat solution has a zinc concentration of 2.39% by weight, and a pH of about 7.03.
(§2) Dilution experiment is conducted by mixing the neat solution with deionized water. The neat solution is diluted by 2×, 4×, 6×, 7×, 8×, 10×, 12×, 16×, 20×, 24×, 28×, and 32×, corresponding to initial zinc concentrations of 1.20%, 0.598%, 0.398%, 0.341%, 0.299%, 0.239%, 0.199%, 0.149%, 0.120%, 0.0996%, 0.0854%, 0.0747%, by weight, respectively. The diluted samples are kept at 37° C., and the rates at which flocculation/precipitation occurred are monitored.

[5] = Deposition/occlusion assay on dentine slices, confocal imaging; design: species or system human
Procedure: The deposition/occlusion assay is conducted using human dentine slices and the neat solution of Example 5. The dentine slices were prepared by cutting human tooth into thin dentine sections of about 800 microns in thickness, choosing a test side, sanding said test side using a sandpaper of about 600 grit, polishing said test side using a Buehler polishing cloth and 5 micron Buehler aluminum oxide, acid-etching said dentine section in 1% (by weight) citric acid solution for about 20 seconds, sonicating said dentine section for 10 minutes, and storing said dentine section in phosphate buffered saline (PBS, pH 7.4).
For treatment, the neat solution is diluted 16-fold with water, yielding a treatment solution with initial zinc concentration of about 0.149% by weight. The dentine section is immersed in the treatment solution for 1 hour at 37° C. The treated dentine section is then removed from the treatment solution, and rinsed 4 times, each time with 1 mL of PBS. The dentine section is then dried using a paper-based tissue and examined under confocal microscope in both XYZ and XYZ modes. Subsequent treatments are conducted in the same manner.
Dentine sections, as prepared in Example 6, are repeatedly treated with ZLC dilutions with initial zinc concentration of 0.0747% by weight. […] The dentine section is examined under the confocal microscope after each treatment.

[6] = pH of ZLC neat solution and final diluted samples; type: physicochemical; details: neat solution, zinc 2.39% by weight
Procedure: as §1, §2
pH values of final diluted samples are suitable for oral care applications. […] These pH values were well within the range of 5.5 to 10, which defines the suitable range for oral care formulations.

[7] = gel phase batch, 2 fold dilution
[8] = gel phase batch, 4 fold dilution
[9] = gel phase batch, 8 fold dilution
[10] = gel phase batch, 16 fold dilution
[11] = gel phase batch, 32 fold dilution
[12] = original gel phase batch with the named active, DI water blank, 0.5% (w/w) zinc
[13] = original gel phase batch with the named active
[14] = initial zinc 0.0747% (32-fold dilution), 10 minutes at 37° C. each
[15] = neat solution diluted 16-fold, zinc about 0.149%, 1 hour at 37° C. each

Molecule	Absorbance [1, 7]	Absorbance [1, 8]	Absorbance [1, 9]	Absorbance [1, 10]	Absorbance [1, 11]	Absorbance [1, 12]	pH [2]	Appearance / dissolution of active in gel phase [1, 13]	further results
[F-].[Na+] [NaF, Sodium Fluoride]	0.0106	0.0104	0.0107	0.0075	0.0137	0.0344	7.63	–	–
[Cl-].[Cl-].[Zn+2] [ZnCl2]	0.7315	0.3700	0.1701	0.0570	0.0280	0.9204	5.25	cloudy	–
[O]=[Zn] [ZnO]	2.4630	2.5340	2.1883	1.8638	1.0492	2.4626	8.30	not dissolved	Appearance / clarity of mouthwash batch ([3]; original mouthwash batch with the named active): milk white; Turbidity (% Transmission) ([3]; original mouthwash batch, undiluted): 0%
[Zn(C6H14N2O2)2Cl]^+Cl^− [ZLC]	–	–	0.1860	0.1336	–	0.1765	7.37	homogenous solution	Flocculation observation two hours after mixing ([4]; additional sample with initial zinc concentration 0.299%): presence of flocculation; Flocculation/precipitation observation after a total of 19 hours ([4]; all samples except initial zinc concentration 1.20%): flocculation and/or precipitation can be observed; Time to some visible flocculation after mixing stock solution with water ([4]; dilutions with initial zinc concentrations 0.149% and 0.199%): ≤ 30 min; Flocculation observation one and a half hours after mixing ([4]; dilutions with initial zinc concentrations between 0.0747% and 0.239%): visible flocculation; Flocculation observation one hour from mixing ([4]; dilutions with initial zinc concentrations between 0.0854% and 0.239%): visible flocculation; Relative amount of precipitate after a total of 19 hours ([4]; initial zinc concentrations between 0.0747% and 0.239%): the most precipitates; Deposition by confocal imaging after 4 consecutive treatments [5, 14]: significant surface deposition; Deposition/occlusion by confocal imaging after 12 consecutive treatments [5, 14]: complete surface coverage; Visible precipitation during treatment ([5]; initial zinc 0.0747%, 10 minutes at 37° C.): no precipitation is observed by naked eyes; Deposition/occlusion by confocal imaging, first treatment ([5]; neat solution diluted 16-fold, zinc about 0.149%, 1 hour at 37° C.): noticeable deposition; Deposition/occlusion by confocal imaging, second treatment [5, 15]: complete surface coverage, including blocking of substantially all tubule openings; Deposition/occlusion by confocal imaging, third treatment [5, 15]: complete surface coverage and complete blocking of tubule openings; Thickness of surface deposits, second treatment [5, 15]: ≥ 10 microns; Thickness of surface deposits, third treatment [5, 15]: ≥ 25 microns; pH [6]: about 7.03
